# Measurements: patent US20070203244A1, “INHIBITORS OF MEMBRANE TYPE-1 MATRIX METALLOPROTEINASE FOR THE TREATMENT OF INSULIN-DEPENDENT DIABETES MELLITUS” (priority 2006, published 2007)
# Tests used:
# [1] = target: cell surface-associated CD44 of IS-CD8+ T cells (mouse) (UniProt P15379); assay: cell-based or functional assay
# [2] = target: T1, MMP-9 (Homo sapiens, UniProt P14780); conditions: cited from earlier work
# [3] = cited from earlier work
# [4] = target: T2, MMP-2 (Homo sapiens, UniProt P08253); conditions: cited from earlier work
# T2 sequence (P08253 110-660): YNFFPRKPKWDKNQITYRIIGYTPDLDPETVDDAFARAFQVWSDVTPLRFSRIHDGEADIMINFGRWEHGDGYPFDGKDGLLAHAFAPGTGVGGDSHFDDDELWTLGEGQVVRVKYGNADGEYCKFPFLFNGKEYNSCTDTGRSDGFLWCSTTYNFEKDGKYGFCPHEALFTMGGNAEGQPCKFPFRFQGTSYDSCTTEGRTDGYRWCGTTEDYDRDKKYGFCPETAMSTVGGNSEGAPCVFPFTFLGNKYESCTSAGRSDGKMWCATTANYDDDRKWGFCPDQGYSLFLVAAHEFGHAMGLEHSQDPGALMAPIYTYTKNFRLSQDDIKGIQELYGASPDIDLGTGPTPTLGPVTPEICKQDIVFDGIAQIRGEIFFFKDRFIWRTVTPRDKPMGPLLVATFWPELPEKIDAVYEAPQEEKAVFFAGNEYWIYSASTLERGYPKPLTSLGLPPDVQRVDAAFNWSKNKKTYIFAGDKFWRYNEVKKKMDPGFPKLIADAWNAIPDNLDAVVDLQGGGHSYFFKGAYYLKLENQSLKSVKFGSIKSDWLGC
# [5] = tested on: α1-antitrypsin
# [6] = target: cell surface-associated CD44 of IS-CD8+ T cells (UniProt P15379)
# Chain of cell surface-associated CD44 of IS-CD8+ T cells (P15379 23-778): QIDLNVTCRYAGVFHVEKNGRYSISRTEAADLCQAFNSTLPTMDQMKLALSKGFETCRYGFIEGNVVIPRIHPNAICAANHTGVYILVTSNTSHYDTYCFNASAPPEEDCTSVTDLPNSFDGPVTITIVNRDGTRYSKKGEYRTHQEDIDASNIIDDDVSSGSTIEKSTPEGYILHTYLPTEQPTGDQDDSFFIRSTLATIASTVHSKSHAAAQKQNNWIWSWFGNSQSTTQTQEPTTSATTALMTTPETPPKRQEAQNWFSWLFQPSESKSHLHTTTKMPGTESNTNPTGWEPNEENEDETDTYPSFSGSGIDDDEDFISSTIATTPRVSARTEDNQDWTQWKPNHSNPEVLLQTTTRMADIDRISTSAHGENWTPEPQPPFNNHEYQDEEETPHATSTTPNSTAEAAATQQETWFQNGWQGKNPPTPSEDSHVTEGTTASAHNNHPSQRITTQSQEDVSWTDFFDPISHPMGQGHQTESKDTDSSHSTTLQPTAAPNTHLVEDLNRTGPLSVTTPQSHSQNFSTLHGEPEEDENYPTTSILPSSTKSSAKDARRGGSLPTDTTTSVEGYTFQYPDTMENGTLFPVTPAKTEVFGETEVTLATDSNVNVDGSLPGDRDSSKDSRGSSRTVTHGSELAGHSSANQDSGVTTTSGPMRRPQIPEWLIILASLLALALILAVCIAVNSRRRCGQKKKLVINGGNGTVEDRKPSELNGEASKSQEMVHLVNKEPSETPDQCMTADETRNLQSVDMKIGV
# [7] = target: T3, MMP-7 (Homo sapiens, UniProt P09237); conditions: read-out: IC50 for MMP-7 inhibition; cited from earlier work
# T3 sequence (P09237 95-267): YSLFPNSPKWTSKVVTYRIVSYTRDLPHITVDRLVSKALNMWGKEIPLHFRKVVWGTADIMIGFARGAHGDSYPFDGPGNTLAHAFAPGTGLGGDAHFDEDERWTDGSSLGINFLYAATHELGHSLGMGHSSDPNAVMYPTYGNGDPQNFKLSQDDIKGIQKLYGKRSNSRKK
# [8] = tested on: MT1-MMP; conditions: HT1080 fibrosarcoma cell line; cited from earlier work
# [9] = tested on: MT1-MMP; conditions: read-out: EC50 against MT1-MMP; cited from earlier work
# [10] = tested on: Zucker diabetic fatty rats; conditions: cited from earlier work
# [11] = target: T3, MMP-7; conditions: read-out: EC50 against MMP-7; cited from earlier work
# [12] = target: T1, MMP-9; conditions: read-out: EC50 against MMP-9; cited from earlier work
# [13] = tested on: CD44; assay: Cleavage of cellular CD44 by external MT1-MMP-CAT in IS-CD8+ cells (FACS, Western blotting); type: cell-based, NOD mouse; conditions: GM6001 50 μM added to cells co-incubated with MT1-MMP-CAT
# Description: Treatment of Cells with MT1-MMP-CAT—The catalytic domain of MT1-MMP (MT1-MMP-CAT; 3 μg) was co-incubated for 2 h at 37° C. with IS-CD8^+ cells (1×10^7 cells) in 0.2 ml of 50 mM HEPES, 10 Mm CaCl2, 0.5 mM MgCl2, 50 μM ZnCl2, and 0.01% Brij-35 buffer, pH 6.8. Where indicated, GM6001 (50 μM; Chemicon, Temecula, Calif.) was added to the samples. Following treatment, the cells were injected into the irradiated mice or used for DiI labeling, Western blotting, FACS analysis, and other analytical procedures (Savinov, A. Y., et al. (2003); Deryugina, E. I., et al. (2001); Rozanov, D. V., et al. (2001)).
# Western Blotting—IS-CD8^+ cells were surface biotinylated for 1 h at 4° C. with 0.1 mg/ml sulfo-NHS-LC-biotin (Pierce, Rockford, Ill.). Following washes to remove biotin, cells were co-incubated for 2 h with MT1-MMP-CAT in serum-free, unsupplemented Click's medium. […]
# Monoclonal Antibodies and FACS Analysis—IS-CD8^+ cells were stained with the MT1-MMP (Ab815; Chemicon), CD44 (clone IM7.8.1), CD3 (clone 17A2), and CD49d (clone SG31) monoclonal antibodies (all from BD Biosciences, Rockville, Md.) and the CD29 monoclonal antibody (Chemicon), followed by staining with fluorescein isothiocyanate- or phycoerythrinconjugated secondary antibody (BD Biosciences), and then analyzed on a FACScan flow cytometer (Becton Dickinson, Franklin Lakes, N.J.). […]
# [14] = tested on: CD44 shedding in IS-CD8+ cells; assay: CD44 shedding in adherent IS-CD8+ cells, Western blotting; type: cell-based, NOD mouse; conditions: Example 1: adherent IS-CD8+ cells on gelatin
# Description: Western Blotting—IS-CD8^+ cells were surface biotinylated for 1 h at 4° C. with 0.1 mg/ml sulfo-NHS-LC-biotin (Pierce, Rockford, Ill.). Following washes to remove biotin, cells were co-incubated for 2 h with MT1-MMP-CAT in serum-free, unsupplemented Click's medium. The cells were then lysed with 50 mM N-octyl-β-D-glucopyranoside in phosphate-buffered saline supplemented with 1 mM CaCl2, 1 mM MgCl2, and protease inhibitor mixture containing phenylmethylsulfonyl fluoride (1 mM) and aprotinin, pepstatin, and leupeptin (1 μg/ml each). Biotin-labeled CD44 was captured from the cell lysate and from the medium aliquots on streptavidin-agarose beads. The captured samples were examined by Western blotting with the CD44 (clone IM7.8.1) antibody to determine the released, soluble, CD44 ectodomain in the medium samples and the residual, membrane-anchored, cellular CD44 in the cell lysates.
# Western blotting—IS-CD8^+ cells were surface biotinylated for 1 hr at 4° C. with 0.1 mg/ml of sulfo-NES-LC-biotin (Pierce). Following washes to remove biotin, the labeled cells were allowed to adhere in serum-free medium to plastic coated with 2% type I collagen/gelatin for 4 h or were kept in suspension. Under these experimental conditions, the vast majority of the cells became attached to gelatin. […] The cells were then lysed with 50 mM N-octyl-β-D-glucopyranoside in PBS supplemented with 1 mM CaCl2, 1 mM MgCl2, and protease inhibitor cocktail containing phenylmethylsulfonyl fluoride (1 mM) and aprotinin, pepstatin, and leupeptin (1 μg/ml each). Biotin-labeled CD44 was captured from the cell lysate and from the medium aliquots on streptavidine-Agarose beads. The captured samples were examined by Western blotting with the CD44 (clone IM7.8.1) antibody to determine the released, soluble, CD44 ectodomain in the medium samples and the residual, membrane-anchored, cellular CD44 in the cell lysates.
# [15] = target: T4, MT1-MMP (Mus musculus, UniProt P53690); assay: MT1-MMP-dependent MMP-2 activation in adherent IS-CD8+ cells, gelatin zymography; type: cell-based, NOD mouse; conditions: Example 1: adherent IS-CD8+ cells on gelatin, 4 h
# T4 construct: Endogenous MT1-MMP is latent in non-adherent IS-CD8^+ cells; endogenous in cells; host or cells: IS-CD8+ T cells (TGNFC8 clone, NOD mouse), adherent to gelatin
# Description: MT1-MMP-dependent MMP-2 Activation and Gelatin Zymography—IS-CD8^+ cells (1×10^6) were either allowed to adhere for 4 h in serum-free unsupplemented Click's medium to plastic coated with 2% gelatin or kept in solution. Under these experimental conditions, the vast majority of cells became attached to gelatin. In 4 h, media samples (30 μl each) were withdrawn and analyzed by gelatin zymography (Deryugina, E. I., et al. (2001)) to identify the proteolytic activity and the activation status of MMP-2 naturally synthesized by IS-CD8^+ cells. Where indicated, cells were supplemented with external purified pro-MMP-2 (20 ng). Pro-MMP-2 was isolated from a conditioned medium of p2AHT2A72 cells derived from an HT1080 fibrosarcoma cell line sequentially transfected with the E1A and MMP-2 cDNAs (Strongin, A. Y., et al. (1995)).
# MT1-MMP-dependent MMP-2 activation and gelatin zymography—IS-CD8^+ cells (1×10^6) were either allowed to adhere for 4 h in serum-free unsupplemented Click's medium to the plastic coated with 2% gelatin or kept in solution. In 18 h, media samples (30 μl each) were withdrawn and analyzed by gelatin zymography (Deryugina, E. I., et al. (2001)) to identify the proteolytic activity and the activation status of MMP-2 naturally synthesized by IS-CD8^+ cells. […] Pro-MMP-2 was isolated from a conditioned medium of p2AHT2A72 cells derived from an HT1080 fibrosarcoma cell line sequentially transfected with the E1A and MMP-2 cDNAs (Strongin, A. Y., et al. (1995)).
# T1 sequence (P14780 94-707, species assumed): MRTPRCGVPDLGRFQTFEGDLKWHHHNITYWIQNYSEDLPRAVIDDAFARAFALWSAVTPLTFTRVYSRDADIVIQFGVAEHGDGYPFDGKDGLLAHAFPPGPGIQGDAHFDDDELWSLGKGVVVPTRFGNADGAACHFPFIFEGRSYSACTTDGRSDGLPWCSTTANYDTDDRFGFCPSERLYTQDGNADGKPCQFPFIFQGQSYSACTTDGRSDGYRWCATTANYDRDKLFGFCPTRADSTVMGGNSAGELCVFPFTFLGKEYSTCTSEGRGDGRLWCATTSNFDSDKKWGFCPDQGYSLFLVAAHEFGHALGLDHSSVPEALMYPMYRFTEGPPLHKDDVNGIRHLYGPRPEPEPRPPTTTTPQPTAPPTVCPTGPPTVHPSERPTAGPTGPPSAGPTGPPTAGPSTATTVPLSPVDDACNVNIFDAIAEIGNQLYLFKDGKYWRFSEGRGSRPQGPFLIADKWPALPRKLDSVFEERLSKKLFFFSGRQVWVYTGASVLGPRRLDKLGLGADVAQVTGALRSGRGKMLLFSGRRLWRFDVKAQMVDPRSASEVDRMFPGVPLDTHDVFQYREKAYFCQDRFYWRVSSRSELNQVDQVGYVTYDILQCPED
# Chain of cell surface-associated CD44 of IS-CD8+ T cells (mouse) (P15379 23-778): as the sequence (P15379 23-778) above
compound,measurement,setting,value
catalytic domain of MT1-MMP (MT1-MMP-CAT) (enzyme),"homing of DiI-labeled IS-CD8+ cells into the pancreatic islets of NOD mice, 24 h",[1],4.5 fold
O=C(C[C@H](CSc1ccccc1)C(=O)O)c1ccc(-c2ccc(Cl)cc2)cc1 [BAY 12-9566],IC50 for MMP-9 inhibition,[2],below 0.13 μg/mL
same,time to peak plasma concentrations after dosing,[3]; after oral administration,0.5 to 2 h
same,linearity of pharmacokinetics,"[3]; normal volunteers, doses of up to 100 mg/day",linear
same,effect of repeated administration on clearance,[3]; repeated administration,increased clearance
same,IC50 for MMP-2 inhibition,[4],below 0.13 μg/mL
MMP-2 (as incubated with α1-antitrypsin),"cleavage of α1-antitrypsin in vitro, reducing SDS-gel electrophoresis",[5],the MMP-2 proteolysis of α1-antitrypsin (a sensitive and readily available protein substrate of MMPs) and converting this 61 kDa serpin into a 55 kDa degradation fragment
cell surface-associated MT1-MMP of IS-CD8+ T cells,"release of CD44 proteolytic fragments into medium, Western blotting",[6],release of the CD44 proteolytic fragments into medium was detected only in adherent IS-CD8^+ cells
CNC(=O)[C@H](Cc1ccccc1)NC(=O)[C@H](CC(C)C)[C@H](CSc1cccs1)C(=O)NO [Batimastat],IC50,[2]; read-out: IC50 for MMP-9 inhibition,< 0.0209 µM
same,IC50,[7],< 0.0209 µM
O=P(O)(O)C(Cl)(Cl)P(=O)(O)O [Clodronate],expression of MT1-MMP protein and messenger RNA,[8],inhibited
"CC(C)[C@H](NS(=O)(=O)c1ccc(-c2ccc(Br)cc2)cc1)C(=O)O [PD166793, (S)-2-(4′-bromo-biphenyl-4-sulfonylamino)-3-methyl-butyric acid]",EC50,[9],0.24 µM
same,β cell mass,[10],preserved β cell mass
same,EC50,[11],7.2 µM
same,EC50,[12],7.9 µM
CNC(=O)[C@H](Cc1c[nH]c2ccccc12)NC(=O)[C@@H](CC(=O)NO)CC(C)C [GM6001],effect on MT1-MMP-CAT cleavage of cellular CD44,[13],reversed the effect of MT1-MMP-CAT
same,shedding of CD44 in adherent cells,[14],blocked
same,activation of MMP-2 in adherent cells,[15],blocked
